Our source for the IC50 values is patent US9149475B2, “Protein kinase C inhibitors and uses thereof” (Rigel Pharmaceuticals, Inc., priority 2009, dated 2015).

Molecules are shown by their SMILES.

For one assay, the system named is Human primary T cells. Briefly: IL-2 ELISA, human primary T cell, anti-CD3+CD28+ (whole cell assay). It counts as cell-based. The conditions noted are these: Homo sapiens, T-cell, 24 h, human primary T cells stimulated with anti-CD3 + anti-CD28, 24 hours. How it is done:
(§1) Human primary T cells were prepared as follows. Whole blood was obtained from a healthy volunteer, mixed 1:1 with PBS, layered on to Ficoll Hypaque (Amersham Pharmacia Biotech, Piscataway, N.J., Catalog #17-1440-03) in 2:1 blood/PBS:ficoll ratio and centrifuged for 30 minutes at 4° C. at 1750 rpm. The cells at the serum:ficoll interface were recovered and washed twice with 5 volumes of PBS. These freshly isolated human peripheral blood mononuclear cells were cultured in Yssel's medium containing 40 U/mL IL2 in a flask pre-coated with 1 μg/mL αCD3 and 5 μg/mL αCD28 (Anti-Human CD3, BD Pharmingen Catalog #555336, Anti-Human CD28, Beckman Coulter Catalog #IM1376). The cells were stimulated for 3-4 days, then transferred to a fresh flask and maintained in RPMI (RPMI-1640 with L-Glutamine; Mediatech, Inc., Herndon Va., cat. #10-040-CM) with 10% FBS and 40 U/mL IL-2. The primary T-cells were then washed twice with PBS to remove the IL-2.
Human primary T cells (100,000 cells per well) were pre-incubated with or without test compound in Yssel's medium for 1 hr at 37° C. Cells were then stimulated by transferring them to round-bottom 96-well plates pre-coated with 1 μg/ml μCD3 and 5 μg/ml μCD28. For counter assay, cells were instead stimulated by adding 8× stock solutions of PMA and ionomycin in Yssels (for final concentrations of 0.5 ng/ml PMA and 0.1 μM ionomycin, both from Calbiochem). Cells were incubated at 37° C. for 24 hours before 100 μL supernatants were harvested for quantification of IL-2 by ELISA using Human IL-2 Duoset ELISA Kit from R and D Systems, Cat. #DY202E.
as §1, with “Human primary T cell isolation and culture: Human primary” for “Human primary”, “for 30 min at 4°” for “for 30 minutes at 4°”, “at the serum: ficoll interface were” for “at the serum:ficoll interface were”
Primary T cell stimulation and IL2 ELISA: Human primary T cells (100,000 cells per well) were pre-incubated with or without test compound in Yssel's medium for 1 hr at 37° C. Cells were then stimulated by transferring them to round-bottom 96-well plates pre-coated with 1 μg/ml αCD3 and 5 μg/ml αCD28. For counter assay, cells were instead stimulated by adding 8× stock solutions of PMA and ionomycin in Yssels (for final concentrations of 0.5 ng/ml PMA and 0.1 μM ionomycin, both from Calbiochem). Cells were incubated at 37° C. for 24 hours before 100 μL supernatants were harvested for quantification of IL-2 by ELISA using Human IL-2 Duoset ELISA Kit from R and D Systems, Cat. #DY202E.
On the technique in general: ELISA stands for enzyme-linked immunosorbent assay.
Take `CC1(C)CC(Nc2nc(Nc3ccc(OC4CCN(CCF)CC4)c(OC(F)F)c3)ncc2F)CC(C)(C)N1` [III-50, N2-(3-(difluoromethoxy)-4-(1-(2-fluoroethyl)piperidin-4-yloxy)phenyl)-5-fluoro-N4-(2,2,6,6-tetramethylpiperidin-4-yl)pyrimidine-2,4-diamine]: the IC50 (as a rule, the midpoint of a concentration-inhibition curve) fell in the range of 250 to 500 nM.
Same read-out and setting: for `CN1C(C)(C)CC(Nc2nc(Nc3ccc(OC4CCN(CCF)CC4)c(OC(F)F)c3)ncc2F)CC1(C)C` [III-51, N2-(3-(difluoromethoxy)-4-(1-(2-fluoroethyl)piperidin-4-yloxy)phenyl)-5-fluoro-N4-(1,2,2,6,6-pentamethylpiperidin-4-yl)pyrimidine-2,4-diamine] the value was below 250 nM; for `CC(C)Oc1ncc(Nc2ncc(C(N)=O)c(NC3CC(C)(C)N(C)C(C)(C)C3)n2)cc1-c1nnnn1C(C)C` [Compound I-133, 2-(6-isopropoxy-5-(1-isopropyl-1H-tetrazol-5-yl)pyridin-3-ylamino)-4-(1,2,2,6,6-pentamethylpiperidin-4-ylamino)pyrimidine-5-carboxamide], 500 to 1000 nM; for `CN1C(C)(C)CC(Nc2nc(Nc3ccc(OC(C)(C)CCN4CCCC4)c(F)c3)ncc2F)CC1(C)C` [III-47, 5-fluoro-N2-(3-fluoro-4-(2-methyl-4-(pyrrolidin-1-yl)butan-2-yloxy)phenyl)-N4-(1,2,2,6,6-pentamethylpiperidin-4-yl)pyrimidine-2,4-diamine], 500 to 1000 nM.
On the same count and under the same terms, for `CC(C)n1nnnc1-c1cccc(Nc2ncc(F)c(NC3CC(C)(C)NC(C)(C)C3)n2)c1` [III-71, 5-fluoro-N2-(3-(1-isopropyl-1H-tetrazol-5-yl)phenyl)-N4-(2,2,6,6-tetramethylpiperidin-4-yl)pyrimidine-2,4-diamine] the value was 500 to 1000 nM.
Still for that read-out and setting: for `CC(C)Nc1cc(Nc2ncc(F)c(NC3CC(C)(C)NC(C)(C)C3)n2)ccc1OC(C)C` [III-61, 5-fluoro-N2-(4-isopropoxy-3-(isopropylamino)phenyl)-N4-(2,2,6,6-tetramethylpiperidin-4-yl)pyrimidine-2,4-diamine] the value was above 1000 nM.
Regarding `Cn1nnnc1-c1cc(Nc2ncc(F)c(NC3CC(C)(C)NC(C)(C)C3)n2)cc(F)c1F` [III-136, N2-(3,4-difluoro-5-(1-methyl-1H-tetrazol-5-yl)phenyl)-5-fluoro-N4-(2,2,6,6-tetramethylpiperidin-4-yl)pyrimidine-2,4-diamine], the IC50 was in the range of 250 to 500 nM.
Consider `CN1C(C)(C)CC(Nc2nc(Nc3ccc(Oc4ccncc4)c(OC(F)F)c3)ncc2C#N)CC1(C)C` [Compound I-53, 4-(1,2,2,6,6-pentamethylpiperidin-4-ylamino)-2-(3-(difluoromethoxy)-4-(pyridin-4-yloxy)phenylamino)pyrimidine-5-carbonitrile], for which the IC50 is above 1000 nM.
Still for that read-out and setting: for `Cc1ccn(-c2cccc(Nc3ncc(F)c(NC4CC(C)(C)NC(C)(C)C4)n3)c2)n1` [Compound I-7, 5-fluoro-N2-(3-(3-methyl-1H-pyrazol-1-yl)phenyl)-N4-(2,2,6,6-tetramethylpiperidin-4-yl)pyrimidine-2,4-diamine] the value was above 1000 nM; for `CCNC(=O)N1CCC(Oc2ccc(Nc3ncc(F)c(NC4CC(C)(C)N(C)C(C)(C)C4)n3)cc2F)CC1` [III-16, N-ethyl-4-(2-fluoro-4-(5-fluoro-4-(1,2,2,6,6-pentamethylpiperidin-4-ylamino)pyrimidin-2-ylamino)phenoxy)piperidine-1-carboxamide], above 1000 nM.
In the case of `CC(C)N1CC[C@@H](Oc2ccc(Nc3ncc(F)c(NC4CC(C)(C)NC(C)(C)C4)n3)cc2OC(F)F)C1` [Compound I-146, N2-(4-((R)-1-isopropylpyrrolidin-3-yloxy)-3-(difluoromethoxy)phenyl)-5-fluoro-N4-(2,2,6,6-tetramethylpiperidin-4-yl)pyrimidine-2,4-diamine], the IC50 lay in the range of 250 to 500 nM.
For `CC1(C)CC(Nc2nc(Nc3ccc(OCCN4CCCC4=O)c(OC(F)F)c3)ncc2F)CC(C)(C)N1` [Compound I-30, 1-(2-(4-(4-(2,2,6,6-tetramethylpiperidin-4-ylamino)-5-fluoropyrimidin-2-ylamino)-2-(difluoromethoxy)phenoxy)ethyl)pyrrolidin-2-one], the IC50 is 500 to 1000 nM.
Still for that read-out and setting: the value for `Cc1ccc(Nc2ncc(F)c(NC3CC(C)(C)NC(C)(C)C3)n2)cc1-c1nnnn1C` [III-63, 5-fluoro-N2-(4-methyl-3-(1-methyl-1H-tetrazol-5-yl)phenyl)-N4-(2,2,6,6-tetramethylpiperidin-4-yl)pyrimidine-2,4-diamine] was 250 to 500 nM; that for `CC1(C)CC(Nc2nc(Nc3cccc(-c4nnnn4CCN4CCOCC4)c3)ncc2F)CC(C)(C)N1` [III-77, 5-fluoro-N2-(3-(1-(2-morpholinoethyl)-1H-tetrazol-5-yl)phenyl)-N4-(2,2,6,6-tetramethylpiperidin-4-yl)pyrimidine-2,4-diamine] was above 1000 nM; that for `Cc1nnnn1-c1cc(Nc2ncc(C#N)c(NC3CC(C)(C)NC(C)(C)C3)n2)ccc1F` [Compound I-18, 4-(2,2,6,6-tetramethylpiperidin-4-ylamino)-2-(4-fluoro-3-(5-methyl-1H-tetrazol-1-yl)phenylamino)pyrimidine-5-carbonitrile] was 250 to 500 nM.
Same read-out and setting: the value for `CN1C(C)(C)CC(Nc2nc(Nc3ccc(OC4CCN(CCF)CC4)c(Cl)c3)ncc2F)CC1(C)C` [III-97, N2-(3-chloro-4-(1-(2-fluoroethyl)piperidin-4-yloxy)phenyl)-5-fluoro-N4-(1,2,2,6,6-pentamethylpiperidin-4-yl)pyrimidine-2,4-diamine] was below 250 nM.
Still for that read-out and setting: the value for `CC1(C)CC(Nc2nc(Nc3ccc(C4CC4)c(-n4cnnn4)c3)ncc2F)CC(C)(C)N1` [III-118, N^2-(4-cyclopropyl-3-(1H-tetrazol-1-yl)phenyl)-5-fluoro-N^4(2,2,6,6-tetramethylpiperidin-4-yl)pyrimidine-2,4-diamine] was below 250 nM; that for `CN1C(C)(C)CC(Nc2nc(Nc3ccc(OC4CCN(CC(N)=O)CC4)c(OC(F)F)c3)ncc2F)CC1(C)C` [III-35, 2-(4-(2-(Difluoromethoxy)-4-(5-fluoro-4-(1,2,2,6,6-pentamethylpiperidin-4-ylamino)pyrimidin-2-ylamino)phenoxy)piperidin-1-yl)acetamide] was 250 to 500 nM; that for `CN1C(C)(C)CC(Nc2nc(Nc3cc(F)c(OC4CCOCC4)c(F)c3)ncc2F)CC1(C)C` [III-25, N2-(3,5-difluoro-4-(tetrahydro-2H-pyran-4-yloxy)phenyl)-5-fluoro-N4-(1,2,2,6,6-pentamethylpiperidin-4-yl)pyrimidine-2,4-diamine] was 500 to 1000 nM.
Take `CC(C)N1CCC(Oc2ccc(Nc3ncc(F)c(NC4CC(C)(C)N(C)C(C)(C)C4)n3)cc2C#N)CC1` [Compound I-151, 2-(1-isopropylpiperidin-4-yloxy)-5-(4-(1,2,2,6,6-pentamethylpiperidin-4-ylamino)-5-fluoropyrimidin-2-ylamino)benzonitrile]: the IC50 was 500 to 1000 nM.
The same measure, in the same setting: the value for `CC(C)Nc1cc(Nc2ncc(F)c(NC3CC(C)(C)N(C)C(C)(C)C3)n2)ccc1OC(C)C` [III-62, 5-fluoro-N2-(4-isopropoxy-3-(isopropylamino)phenyl)-N4-(1,2,2,6,6-pentamethylpiperidin-4-yl)pyrimidine-2,4-diamine] was above 1000 nM; that for `COCCn1nnnc1-c1cc(Nc2ncc(F)c(NC3CC(C)(C)NC(C)(C)C3)n2)ccc1F` [III-129, 5-fluoro-N2-(4-fluoro-3-(1-(2-methoxyethyl)-1H-tetrazol-5-yl)phenyl)-N4-(2,2,6,6-tetramethylpiperidin-4-yl)pyrimidine-2,4-diamine] was above 1000 nM.

Still in this assay, the particulars now being: human primary T cells stimulated with anti-CD3 + anti-CD28, 24 hours.
On to `CCCc1nnnn1-c1cc(Nc2ncc(C#N)c(NC3CC(C)(C)N(C)C(C)(C)C3)n2)ccc1OC` [Compound I-80, 5-cyano-N2-[4-methoxy-3-(5-propyl-1H-tetrazol-1-yl)]phenyl-N4-(1,2,2,6,6-pentamethylpiperidin-4-yl)-2,4-pyrimidinediamine], for which the 50% inhibitory concentration (IC50) was below 250 nM.
